System: stratum corneum desquamation
Test: normalizing effect on stratum corneum desquamation
Text: Oxa acids easily dissolve in water to concentrations of at least 20 to 30% by weight. […] Dicarboxylic acids of moderate to long chain length, which have straight, all-carbon backbones, are virtually insoluble in water and other aesthetically acceptable vehicles. This severely limits the choice of delivery vehicles for the dicarboxylic acids. The desquamatory activity of such dicarboxylic acids is also questionable.

O=C(O)CCCCCCCCCCC(=O)O [dodecanedioic acid]
normalizing effect on stratum corneum desquamation beyond that of vehicle alone (formulation containing 5% dodecanedioic acid): do not produce any normalizing effect
normalizing effect on stratum corneum desquamation beyond that of vehicle alone (formulation containing 10% dodecanedioic acid): do not produce any normalizing effect

Reference: US6534543B2, “Oxa acids and related compounds for treating skin conditions” (Avon Products, Inc., priority 1996, dated 2003)
